Measurements reported in patent US6703042B1, “Salts of L-carnitine and lower alkanoyl L-carnitine” (Sigma-Tau Industries Farmaceutiche Riunite S.p.A., priority 1999, dated 2004).
Structures can show the parent of a compound that is named as a salt.

Experiment: Hygroscopicity: increase in weight and appearance after exposure to humidity
Type: physicochemical
Conditions: exposure to 70±5% relative humidity, at 25° C. for 24 hours

Row | Compound | Appearance | Increase in weight (%)
1 | CCC(=O)O[C@H](CC(=O)O)C[N+](C)(C)C.[Cl-] [Propionyl-L-carnitine chloride, reference compound] | deliquescent | 15
2 | Acetyl L-carnitine L-arginate Hydrochloride [Example 5] | no variation | 0.45
3 | Acetyl L-carnitine L-cysteinate Hydrochloride [Example 4] | no variation | 0.6
4 | CC(=O)O[C@H](CC(=O)O)C[N+](C)(C)C.[Cl-] [Acetyl-L-carnitine chloride, reference compound] | clumped mass | 8
5 | C[N+](C)(C)C[C@H](O)CC(=O)[O-] [L-carnitine inner salt, reference compound] | deliquescent | 23
6 | Acetyl L-carnitine L-glutamate Hydrochloride [Example 6] | no variation | 0.4
7 | Acetyl L-carnitine L-glutaminate Hydrochloride [Example 7] | no variation | 0.6
8 | CC(=O)O[C@H](CC(=O)[O-])C[N+](C)(C)C [Acetyl-L-carnitine inner salt, reference compound] | deliquescent | 19
9 | Acetyl L-carnitine L-isoleucinate hydrochloride [Example 1] | no variation | 0.2
10 | Acetyl L-carnitine L-aspartate Hydrochloride [Example 8] | no variation | 0.7
11 | Acetyl L-carnitine L-asparaginate Hydrochloride [Example 9] | no variation | 0.3

Experiment: Hygroscopicity of the solid as stated in the preparation examples
Type: physicochemical
Conditions: not given

Row | Compound | Hygroscopicity of the solid
12 | Acetyl L-carnitine L-arginate Hydrochloride [Example 5] | non-hygroscopic
13 | Acetyl L-carnitine L-cysteinate Hydrochloride [Example 4] | non-hygroscopic
14 | Acetyl L-carnitine L-glutamate Hydrochloride [Example 6] | non-hygroscopic
15 | Cl.N[C@@H](CS)C(=O)O [L-cysteine Hydrochloride] | Very Hygroscopic
16 | Acetyl L-carnitine L-glutaminate Hydrochloride [Example 7] | non-hygroscopic
17 | CC(=O)O[C@H](CC(=O)[O-])C[N+](C)(C)C [Acetyl-L-carnitine inner salt, reference compound] | Very Hygroscopic
18 | Acetyl L-carnitine L-isoleucinate hydrochloride [Example 1] | non-hygroscopic
19 | Acetyl L-carnitine L-aspartate Hydrochloride [Example 8] | non-hygroscopic
20 | Acetyl L-carnitine L-asparaginate Hydrochloride [Example 9] | non-hygroscopic

Experiment: not given
Conditions: background statement; cited from earlier work

Row | Compound | Hygroscopicity (known salts, prior art)
21 | L(−)-carnitine acid fumarate | non-hygroscopic
22 | CC(=O)O[C@H](CC(=O)O)C[N+](C)(C)C.O=C([O-])/C=C/C(=O)O [acetyl L(−)-carnitine acid fumarate] | strongly hygroscopic
23 | C[N+](C)(C)C[C@H](O)CC(=O)O.C[N+](C)(C)C[C@H](O)CC(=O)O.O=C([O-])C(O)C(O)C(=O)[O-] [L(−)-carnitine tartrate] | non-hygroscopic
